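Test compounds were applied to cells in 96-well plates for 48 hours at 5 doses. Definition used: TGI = concentration required for complete inhibition of growth.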
Experiments:
Test in all cases: NCI anticancer screen, dose series, 48 h
[1] = test system: 786-0 renal
[2] = test system: COLO 205 colon
[3] = test system: NCI-H23 lung
[4] = test system: MALME-3M melanoma
[5] = test system: SK-OV-3 ovarian
[6] = test system: HOP-62 NSCLC
[7] = test system: KM12 colon
[8] = test system: RPMI-8226 leukemia
[9] = test system: EKVX NSCLC
[10] = test system: ACHN renal
[11] = test system: A498 renal
[12] = test system: HCC-2998 colon
[13] = test system: DMS 273 small cell lung
[14] = test system: HCT-116 colon
[15] = test system: DMS 114 small cell lung
[16] = test system: T-47D breast
[17] = test system: MOLT-4 leukemia
[18] = test system: UO-31 renal
[19] = test system: SF-268 CNS
[20] = test system: NCI-H522 lung
[21] = test system: LOX IMVI melanoma
[22] = test system: A549 NSCLC
[23] = test system: OVCAR-8 ovarian
[24] = test system: K-562 leukemia
[25] = test system: SW-620 colon
[26] = test system: PC-3 prostate
[27] = test system: KM20L2 colon
[28] = test system: DLD-1 colon
[29] = test system: UACC-257 melanoma
[30] = test system: MDA-N
[31] = test system: SNB-78 CNS
[32] = test system: U251 CNS
[33] = test system: LXFL 529 NSCLC
[34] = test system: MDA-MB-231 breast
[35] = test system: NCI-H460 lung
[36] = test system: OVCAR-3 ovarian
[37] = test system: M14 melanoma
[38] = test system: OVCAR-5 ovarian
[39] = test system: SN12C renal
[40] = test system: IGROV1 ovarian
[41] = test system: BT-549 breast
[42] = test system: SK-MEL-28 melanoma
[43] = test system: RXF 393 renal
[44] = test system: SNB-19 CNS
[45] = test system: CAKI-1 renal
[46] = test system: OVCAR-4 ovarian
[47] = test system: SK-MEL-5 melanoma
[48] = test system: SF-295 CNS
[49] = test system: M19-MEL melanoma
[50] = test system: SF-539 CNS
[51] = test system: SNB-75 CNS
[52] = test system: TK-10 renal
[53] = test system: MCF7 breast
[54] = test system: SK-MEL-2 melanoma
[55] = test system: HT29 colon
[56] = test system: NCI/ADR-RES ovarian
[57] = test system: HS 578T breast
[58] = test system: DU-145 prostate
[59] = test system: HL-60(TB) leukemia
[60] = test system: MDA-MB-435
[61] = test system: SR leukemia
[62] = test system: NCI-H226 lung
[63] = test system: UACC-62 melanoma
[64] = test system: HOP-92 NSCLC
[65] = test system: HCT-15 colon
[66] = test system: CCRF-CEM leukemia

Cc1nc2ccc(N=Nc3c(O)ccc4ccccc34)cc2[nH]1
TGI [1]: 54.4 µM
TGI [2]: > 66.6 µM
TGI [3]: > 100 µM
TGI [4]: > 66.5 µM
TGI [5]: > 100 µM
TGI [6]: > 100 µM
TGI [7]: > 100 µM
TGI [8]: > 82.8 µM
TGI [9]: > 83.6 µM
TGI [10]: > 57.2 µM
TGI [11]: > 92.7 µM
TGI [12]: > 70.5 µM
TGI [13]: 33.5 µM
TGI [14]: > 58.4 µM
TGI [15]: 63 µM
TGI [16]: 41 µM
TGI [17]: 66.2 µM
TGI [18]: > 84.8 µM
TGI [19]: > 100 µM
TGI [20]: 54.3 µM
TGI [21]: 32.4 µM
TGI [22]: > 78.7 µM
TGI [23]: 69.6 µM
TGI [24]: > 100 µM
TGI [25]: > 70 µM
TGI [26]: 48.1 µM
TGI [27]: > 100 µM
TGI [28]: 66.2 µM
TGI [29]: > 63.5 µM
TGI [30]: 36.7 µM
TGI [31]: > 100 µM
TGI [32]: > 67.9 µM
TGI [33]: 37.3 µM
TGI [34]: 53.6 µM
TGI [35]: > 87.7 µM
TGI [36]: > 56.2 µM
TGI [37]: > 81.5 µM
TGI [38]: > 100 µM
TGI [39]: > 74.9 µM
TGI [40]: > 67 µM
TGI [41]: 59.7 µM
TGI [42]: > 100 µM
TGI [43]: > 57.9 µM
TGI [44]: > 100 µM
TGI [45]: 49.8 µM
TGI [46]: 35.1 µM
TGI [47]: > 65.1 µM
TGI [48]: > 100 µM
TGI [49]: 42.7 µM
TGI [50]: > 62.3 µM
TGI [51]: > 100 µM
TGI [52]: > 100 µM
TGI [53]: 44.9 µM
TGI [54]: > 76.8 µM
TGI [55]: > 67.2 µM
TGI [56]: 60.2 µM
TGI [57]: 61.9 µM
TGI [58]: > 100 µM
TGI [59]: 46.8 µM
TGI [60]: 45.9 µM
TGI [61]: 55.4 µM
TGI [62]: > 100 µM
TGI [63]: > 63.4 µM
TGI [64]: 42.8 µM
TGI [65]: > 63.5 µM
TGI [66]: > 58.3 µM

C#CCn1c(=O)c(C)cn(/C(=C/C(=O)OCC)C(=O)OCC)c1=O
TGI [1]: 19.4 µM
TGI [2]: > 22.7 µM
TGI [3]: 23.4 µM
TGI [4]: 4.07 µM
TGI [5]: > 63.1 µM
TGI [6]: 30.5 µM
TGI [7]: 32 µM
TGI [8]: > 27.7 µM
TGI [9]: 21.1 µM
TGI [10]: 3.64 µM
TGI [11]: 31.5 µM
TGI [12]: 32.2 µM
TGI [14]: 13.7 µM
TGI [16]: 20.3 µM
TGI [17]: 30.6 µM
TGI [18]: 23.4 µM
TGI [19]: 25.6 µM
TGI [21]: 29.8 µM
TGI [22]: 32.4 µM
TGI [23]: 5.56 µM
TGI [24]: > 69.4 µM
TGI [25]: 4.16 µM
TGI [26]: 25.7 µM
TGI [29]: 28.8 µM
TGI [30]: 43.8 µM
TGI [32]: 25.2 µM
TGI [34]: 36.3 µM
TGI [35]: 7.83 µM
TGI [36]: 19.6 µM
TGI [37]: 14 µM
TGI [38]: 16 µM
TGI [39]: 26.2 µM
TGI [40]: 13 µM
TGI [41]: 20.4 µM
TGI [42]: 19.7 µM
TGI [43]: 2.01 µM
TGI [44]: 28.6 µM
TGI [45]: 3.18 µM
TGI [46]: 19.3 µM
TGI [47]: 32.9 µM
TGI [48]: 40.5 µM
TGI [50]: 4.77 µM
TGI [51]: 28.8 µM
TGI [52]: 4.29 µM
TGI [53]: 13.7 µM
TGI [54]: 27.2 µM
TGI [55]: 4.88 µM
TGI [56]: 10.6 µM
TGI [57]: 30 µM
TGI [58]: 29.5 µM
TGI [59]: > 100 µM
TGI [60]: 20.5 µM
TGI [61]: > 100 µM
TGI [62]: 4.9 µM
TGI [63]: 24.8 µM
TGI [64]: 8.5 µM
TGI [65]: 4.07 µM
TGI [66]: 13.5 µM

Fc1cc(C2=C[C@H](c3ccc4c(c3)OCO4)NC(=S)N2)c(Cl)cc1Cl
TGI [1]: > 100 µM
TGI [2]: 50.3 µM
TGI [3]: > 100 µM
TGI [4]: 95.4 µM
TGI [5]: > 100 µM
TGI [6]: > 100 µM
TGI [7]: > 100 µM
TGI [8]: > 100 µM
TGI [9]: > 100 µM
TGI [10]: > 100 µM
TGI [11]: 79 µM
TGI [12]: 75.4 µM
TGI [14]: > 100 µM
TGI [16]: > 100 µM
TGI [17]: > 100 µM
TGI [18]: > 100 µM
TGI [19]: > 100 µM
TGI [20]: > 100 µM
TGI [21]: > 100 µM
TGI [22]: > 100 µM
TGI [23]: > 100 µM
TGI [24]: > 100 µM
TGI [25]: > 100 µM
TGI [26]: 85.8 µM
TGI [29]: 83.6 µM
TGI [30]: > 100 µM
TGI [32]: > 100 µM
TGI [34]: > 100 µM
TGI [35]: > 100 µM
TGI [36]: > 100 µM
TGI [37]: > 100 µM
TGI [38]: > 100 µM
TGI [39]: 90.8 µM
TGI [40]: > 100 µM
TGI [41]: > 100 µM
TGI [42]: > 100 µM
TGI [43]: > 100 µM
TGI [44]: > 100 µM
TGI [45]: > 100 µM
TGI [46]: > 100 µM
TGI [47]: 25.9 µM
TGI [48]: > 100 µM
TGI [50]: > 100 µM
TGI [51]: 91.1 µM
TGI [52]: 96.4 µM
TGI [53]: > 100 µM
TGI [54]: 62.7 µM
TGI [55]: > 100 µM
TGI [56]: > 100 µM
TGI [57]: > 100 µM
TGI [58]: > 100 µM
TGI [59]: 0.23 µM
TGI [60]: > 100 µM
TGI [61]: > 100 µM
TGI [62]: > 100 µM
TGI [63]: > 100 µM
TGI [64]: > 100 µM
TGI [65]: > 100 µM
TGI [66]: > 100 µM
